#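 Briefly, cells in 96-well plates were exposed to five compound concentrations for 48 h, and endpoints were estimated by linear interpolation. GI50 marks 50% less growth. TGI marks complete inhibition of growth.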
# What was measured:
# Experiment in all cases: inhibition of tumour cell growth, NCI panel, 48 h
# [1] = test system: SK-MEL-28 melanoma
# [2] = test system: SN12C renal
# [3] = test system: SF-295 CNS
# [4] = test system: SW-620 colon
# [5] = test system: HT29 colon
# [6] = test system: HOP-62 NSCLC
# [7] = test system: NCI/ADR-RES ovarian
# [8] = test system: SR leukemia
# [9] = test system: MDA-N
# [10] = test system: HCT-116 colon
# [11] = test system: OVCAR-3 ovarian
# [12] = test system: A549 NSCLC
# [13] = test system: CCRF-CEM leukemia
# [14] = test system: EKVX NSCLC
# [15] = test system: SNB-19 CNS
# [16] = test system: PC-3 prostate
# [17] = test system: UACC-257 melanoma
# [18] = test system: DU-145 prostate
# [19] = test system: UO-31 renal
# [20] = test system: CAKI-1 renal
# [21] = test system: NCI-H226 lung
# [22] = test system: LOX IMVI melanoma
# [23] = test system: U251 CNS
# [24] = test system: OVCAR-4 ovarian
# [25] = test system: HOP-92 NSCLC
# [26] = test system: ACHN renal
# [27] = test system: T-47D breast
# [28] = test system: SK-MEL-2 melanoma
# [29] = test system: SNB-75 CNS
# [30] = test system: SF-539 CNS
# [31] = test system: RXF 393 renal
# [32] = test system: MOLT-4 leukemia
# [33] = test system: A498 renal
# [34] = test system: UACC-62 melanoma
# [35] = test system: RPMI-8226 leukemia
# [36] = test system: NCI-H23 lung
# [37] = test system: 786-0 renal
# [38] = test system: IGROV1 ovarian
# [39] = test system: COLO 205 colon
# [40] = test system: HCC-2998 colon
# [41] = test system: MCF7 breast
# [42] = test system: SK-MEL-5 melanoma
# [43] = test system: KM12 colon
# [44] = test system: HCT-15 colon
# [45] = test system: M14 melanoma
# [46] = test system: OVCAR-8 ovarian
# [47] = test system: OVCAR-5 ovarian
# [48] = test system: MDA-MB-435
# [49] = test system: NCI-H460 lung
# [50] = test system: MDA-MB-231 breast
# [51] = test system: BT-549 breast
# [52] = test system: K-562 leukemia
# [53] = test system: SF-268 CNS
# [54] = test system: SK-OV-3 ovarian
# [55] = test system: TK-10 renal
# [56] = test system: HL-60(TB) leukemia
# [57] = test system: MALME-3M melanoma
# [58] = test system: HS 578T breast
# [59] = test system: NCI-H522 lung
compound,measurement,setting,value
Cc1cc2c(-c3ccccc3)cc(=O)[nH]c2cc1N,TGI,[1],> 100 µM
same,TGI,[2],> 100 µM
same,TGI,[3],> 100 µM
same,TGI,[4],> 100 µM
same,TGI,[5],> 100 µM
same,TGI,[6],> 100 µM
same,TGI,[7],> 100 µM
same,TGI,[8],> 100 µM
same,TGI,[9],> 100 µM
same,TGI,[10],> 100 µM
same,TGI,[11],> 100 µM
same,TGI,[12],> 100 µM
same,TGI,[13],> 100 µM
same,TGI,[14],> 100 µM
same,TGI,[15],> 100 µM
same,TGI,[16],> 100 µM
same,TGI,[17],> 100 µM
same,TGI,[18],> 100 µM
same,TGI,[19],> 100 µM
same,TGI,[20],> 100 µM
same,TGI,[21],> 100 µM
same,TGI,[22],> 100 µM
same,TGI,[23],> 100 µM
same,TGI,[24],> 100 µM
same,TGI,[25],> 100 µM
same,TGI,[26],> 100 µM
same,TGI,[27],> 100 µM
same,TGI,[28],> 100 µM
same,TGI,[29],> 100 µM
same,TGI,[30],> 100 µM
same,TGI,[31],> 100 µM
same,TGI,[32],> 100 µM
same,TGI,[33],> 100 µM
same,TGI,[34],> 100 µM
same,TGI,[35],> 100 µM
same,TGI,[36],> 100 µM
same,TGI,[37],> 100 µM
same,TGI,[38],> 100 µM
same,TGI,[39],> 100 µM
same,TGI,[40],> 100 µM
same,TGI,[41],> 100 µM
same,TGI,[42],> 100 µM
same,TGI,[43],> 100 µM
same,TGI,[44],> 100 µM
same,TGI,[45],> 100 µM
same,TGI,[46],> 100 µM
same,TGI,[47],> 100 µM
same,TGI,[48],> 100 µM
same,TGI,[49],> 100 µM
same,TGI,[50],> 100 µM
same,TGI,[51],> 100 µM
same,TGI,[52],> 100 µM
CC(=O)N1CC(F)(F)c2c(Sc3ncc(N4CCC5(CC4)COC[C@H]5N)nc3N)cccc21,GI50,[1],16.1 µM
same,TGI,[1],30.7 µM
same,GI50,[2],25.8 µM
same,TGI,[2],> 100 µM
same,GI50,[3],15.2 µM
same,TGI,[3],50.7 µM
same,GI50,[4],16.8 µM
same,TGI,[4],54.4 µM
same,GI50,[5],14.2 µM
same,TGI,[5],52.9 µM
same,GI50,[6],3.69 µM
same,TGI,[6],75.1 µM
same,GI50,[7],27.6 µM
same,TGI,[7],> 100 µM
same,GI50,[8],8.16 µM
same,TGI,[8],35.8 µM
same,GI50,[10],17.7 µM
same,TGI,[10],46.6 µM
same,GI50,[11],16.9 µM
same,TGI,[11],61.5 µM
same,GI50,[12],23.1 µM
same,TGI,[12],> 100 µM
same,GI50,[13],18.7 µM
same,TGI,[13],68.5 µM
same,GI50,[14],8.27 µM
same,TGI,[14],> 100 µM
same,GI50,[15],14.4 µM
same,TGI,[15],> 100 µM
same,GI50,[53],17.4 µM
same,TGI,[53],> 100 µM
same,GI50,[16],29.8 µM
same,TGI,[16],> 100 µM
same,GI50,[17],22.8 µM
same,TGI,[17],62 µM
same,GI50,[54],3.75 µM
same,TGI,[54],> 100 µM
same,GI50,[18],25.7 µM
same,TGI,[18],> 100 µM
same,GI50,[19],2.96 µM
same,TGI,[19],25.8 µM
same,GI50,[20],3.68 µM
same,TGI,[20],30 µM
same,GI50,[21],20.9 µM
same,TGI,[21],> 100 µM
same,GI50,[22],16.6 µM
same,TGI,[22],32.1 µM
same,GI50,[23],11.1 µM
same,TGI,[23],52.5 µM
same,GI50,[24],10.5 µM
same,TGI,[24],96.6 µM
same,GI50,[25],0.259 µM
same,TGI,[25],3.64 µM
same,GI50,[26],9.03 µM
same,TGI,[26],51.4 µM
same,GI50,[27],17.6 µM
same,TGI,[27],> 100 µM
same,GI50,[28],24.7 µM
same,TGI,[28],> 100 µM
same,GI50,[29],3.19 µM
same,TGI,[29],38.2 µM
same,GI50,[30],11.2 µM
same,TGI,[30],23.3 µM
same,GI50,[31],1.81 µM
same,TGI,[31],9.28 µM
same,GI50,[32],21.1 µM
same,TGI,[32],67.7 µM
same,GI50,[55],0.991 µM
same,TGI,[55],35.8 µM
same,GI50,[33],0.402 µM
same,TGI,[33],4.18 µM
same,GI50,[34],18 µM
same,TGI,[34],36.1 µM
same,GI50,[35],12.4 µM
same,TGI,[35],42.7 µM
same,GI50,[36],3.35 µM
same,TGI,[36],> 100 µM
same,GI50,[37],10.8 µM
same,TGI,[37],27.1 µM
same,GI50,[38],2.47 µM
same,TGI,[38],86.9 µM
same,GI50,[39],17.8 µM
same,TGI,[39],36.7 µM
same,GI50,[56],18.3 µM
same,TGI,[56],36.4 µM
same,GI50,[40],28.3 µM
same,TGI,[40],94.1 µM
same,GI50,[57],15.5 µM
same,TGI,[57],31.5 µM
same,GI50,[41],15.8 µM
same,TGI,[41],55.6 µM
same,GI50,[58],14.6 µM
same,TGI,[58],59.1 µM
same,GI50,[42],16 µM
same,TGI,[42],30.1 µM
same,GI50,[43],22.1 µM
same,TGI,[43],> 100 µM
same,GI50,[44],24 µM
same,TGI,[44],96.8 µM
same,GI50,[45],17.9 µM
same,TGI,[45],37.8 µM
same,GI50,[46],35 µM
same,TGI,[46],> 100 µM
same,GI50,[47],15.4 µM
same,TGI,[47],> 100 µM
same,GI50,[48],31 µM
same,TGI,[48],> 100 µM
same,GI50,[49],31.8 µM
same,TGI,[49],> 100 µM
same,GI50,[50],17.3 µM
same,TGI,[50],41.5 µM
same,GI50,[51],10.8 µM
same,TGI,[51],53.7 µM
same,GI50,[52],2.11 µM
same,TGI,[52],20.7 µM
CC12ON=C(c3ccccc3)N1C=CN1C(c3ccccc3)=NOC12 (stereo not drawn),TGI,[3],> 100 µM
same,TGI,[6],> 100 µM
same,TGI,[7],> 100 µM
same,TGI,[9],> 100 µM
same,TGI,[10],> 100 µM
same,TGI,[11],> 100 µM
same,TGI,[12],> 100 µM
same,TGI,[14],> 100 µM
same,TGI,[15],> 100 µM
same,TGI,[53],> 100 µM
same,TGI,[16],> 100 µM
same,TGI,[17],> 100 µM
same,TGI,[54],> 100 µM
same,TGI,[18],> 100 µM
same,TGI,[19],> 100 µM
same,TGI,[59],> 100 µM
same,TGI,[20],> 100 µM
same,TGI,[21],> 100 µM
same,TGI,[22],> 100 µM
same,TGI,[26],> 100 µM
same,TGI,[29],> 100 µM
same,TGI,[30],> 100 µM
same,TGI,[31],> 100 µM
same,TGI,[55],> 100 µM
same,TGI,[34],> 100 µM
same,TGI,[36],> 100 µM
same,TGI,[37],> 100 µM
same,TGI,[38],> 100 µM
same,TGI,[39],> 100 µM
same,TGI,[40],> 100 µM
same,TGI,[57],> 100 µM
same,TGI,[41],> 100 µM
same,TGI,[58],> 100 µM
same,TGI,[42],> 100 µM
same,TGI,[43],> 100 µM
same,TGI,[44],> 100 µM
same,TGI,[45],> 100 µM
same,TGI,[46],> 100 µM
same,TGI,[47],> 100 µM
same,TGI,[49],> 100 µM
same,TGI,[50],> 100 µM
same,TGI,[51],> 100 µM

# From PubChem BioAssay (NCI)
